Where only a bound is given, the exact number is not on record here.

This is an account of results in patent US20230167127A1, “COMPOUNDS AND THEIR USE IN THE TREATMENT OF BACTERIAL INFECTION” (Hoffmann-La Roche Inc., priority 2020, published 2023).

The test system of this test is Escherichia coli ATCC 25922. As to the kind of experiment: 50% growth inhibitory concentration (IC50) determination, Iso-Sensitest broth dilution. The class given is cell-based. The note with it: Escherichia coli, ATCC25922, 16 h, strain Escherichia coli ATCC 25922; 10-point broth dilution, optical density at 600 nm over 16 h; read-out: Escherichia coli growth inhibition IC50. The gist of the method: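 Growth was tracked as optical density at 600 nm every 20 minutes for 16 h at 35±2° C. Compounds from DMSO stocks were serially diluted twofold over 10 points (e.g. 50–0.097 μM final) in Iso-Sensitest broth. Inhibition computed in log-phase growth to give IC50.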
As for `N#Cc1cccc2c1CC(N[C@H]1C[C@H](C3CN(c4ccc5c(n4)NC(=O)CO5)C(=O)O3)C1)C2` (stereo partly drawn) [Example 14, 2-[[trans-3-[2-oxo-3-(3-oxo-4H-pyrido[3,2-b][1,4]oxazin-6-yl)-1,3-oxazolidin-5-yl]cyclobutyl]amino]-2,3-dihydro-1H-indene-4-carbonitrile], the half-inhibitory concentration (IC50) turned out to be 415 nM.

For `NC1CC(NCC2Cc3ccnc(Cl)c3C2)CCC12CN(c1ccc3c(n1)NC(=O)CO3)C(=O)O2` (racemic) [Example 206, 6-[rac-5,6-cis-5,8-trans-6-amino-8-[(1-chloro-6,7-dihydro-5H-cyclopenta[c]pyridin-6-yl)methylamino]-2-oxo-1-oxa-3-azaspiro[4.5]decan-3-yl]-4H-pyrido[3,2-b][1,4]oxazin-3-one], the IC50 was found to be 1160 nM.

Take `Cc1ncc(F)c2c1CC(CN[C@H]1C[C@H](C3CN(c4cnc5c(n4)NC(=O)CO5)C(=O)O3)C1)C2` (stereo partly drawn) [Example 361, 6-[5-[trans-3-[(4-fluoro-1-methyl-6,7-dihydro-5H-cyclopenta[c]pyridin-6-yl)methylamino]cyclobutyl]-2-oxo-1,3-oxazolidin-3-yl]-4H-pyrazino[2,3-b][1,4]oxazin-3-one]: the IC50 worked out at 336 nM.

For `N#Cc1c(OC2CNC2)ccc2c1CC(CNCCC1CN(c3ccc4c(n3)NC(=O)CO4)C(=O)O1)C2` (stereo not shown) [Example 132, 5-(azetidin-3-yloxy)-2-[[2-[2-oxo-3-(3-oxo-4H-pyrido[3,2-b][1,4]oxazin-6-yl)-1,3-oxazolidin-5-yl]ethylamino]methyl]-2,3-dihydro-1H-indene-4-carbonitrile; formic acid], the IC50 was 145 nM.

On to `Cc1ncc(F)c2c1CC(N[C@H]1CC[C@]3(CC1)CN(c1cnc4c(n1)NC(=O)CO4)C(=O)O3)C2` (stereo partly drawn) [Example 297, trans-6-[8-[(4-fluoro-1-methyl-6,7-dihydro-5H-cyclopenta[c]pyridin-6-yl)amino]-2-oxo-1-oxa-3-azaspiro[4.5]decan-3-yl]-4H-pyrazino[2,3-b][1,4]oxazin-3-one; formic acid], for which the IC50 is 249 nM.

Regarding `Cc1nccc2c1CC(NCCCC1CN(c3ccc4c(n3)NC(=O)CO4)C(=O)O1)C2` (stereo not shown) [Example 94, 6-[5-[3-[(1-methyl-6,7-dihydro-5H-cyclopenta[c]pyridin-6-yl)amino]propyl]-2-oxo-1,3-oxazolidin-3-yl]-4H-pyrido[3,2-b][1,4]oxazin-3-one], the IC50 amounted to 485 nM.

Turning to `Cc1ccnc2c1CC(NCCCC1CN(c3ccc4c(n3)NC(=O)CO4)C(=O)O1)C2` (stereo not shown) [Example 27, 6-[5-[3-[(4-methyl-6,7-dihydro-5H-cyclopenta[b]pyridin-6-yl)amino]propyl]-2-oxo-1,3-oxazolidin-3-yl]-4H-pyrido[3,2-b][1,4]oxazin-3-one], the IC50 amounted to 582 nM.

Regarding `NC1(COc2cc(F)c3c(c2)CC(CNCCC2CN(c4ccc5c(n4)NC(=O)CO5)C(=O)O2)C3)CC1` (stereo not shown) [Example 160, 6-[5-[2-[[6-[(1-aminocyclopropyl)methoxy]-4-fluoro-2,3-dihydro-1H-inden-2-yl]methylamino]ethyl]-2-oxo-1,3-oxazolidin-3-yl]-4H-pyrido[3,2-b][1,4]oxazin-3-one], the IC50 is below 97.7 nM.

As to `NC1c2cccc(Cl)c2CC1CNCCc1nn(-c2ccc3c(n2)NC(=O)CO3)c(=O)o1` (racemic) [Example 153, 6-[5-[2-[(rac-1,2-trans-1-amino-4-chloro-2,3-dihydro-1H-inden-2-yl)methylamino]ethyl]-2-oxo-1,3,4-oxadiazol-3-yl]-4H-pyrido[3,2-b][1,4]oxazin-3-one], the IC50 turned out to be 198 nM.

For `Cc1ncc(F)c2c1C[C@H](CNCC[C@@H]1CN(c3cnc4c(n3)NC(=O)CO4)C(=O)O1)C2` [Example 430], the IC50 was below 97.7 nM.

As for `N#Cc1c(OCC2(N)CC2)ncc2c1CC(CNCCC1CN(c3ccc4c(n3)NC(=O)CO4)C(=O)O1)C2` (stereo not shown) [Example 198, 3-[(1-aminocycopropyl)methoxy]-6-[[2-[2-oxo-3-(3-oxo-4H-pyrido[3,2-b][1,4]oxazin-6-yl)-1,3-oxazolidin-5-yl]ethylamino]methyl]-6,7-dihydro-5H-cyclopenta[c]pyridine-4-carbonitrile], the IC50 is below 97.7 nM.

Turning to `Cc1nccc2c1CC(CNCCC1CN(c3ccc4c(n3)NC(=O)CO4)C(=O)O1)C2` (stereo not shown) [Example 88, 6-[5-[2-[(1-methyl-6,7-dihydro-5H-cyclopenta[c]pyridin-6-yl)methylamino]ethyl]-2-oxo-1,3-oxazolidin-3-yl]-4H-pyrido[3,2-b][1,4]oxazin-3-one], the IC50 stood at 168 nM.

In the case of `Cc1ncc(C#N)c2c1CC(CNCCC1CN(c3cnc4c(n3)NC(=O)CO4)C(=O)O1)C2` (stereo not shown) [Example 291, 1-methyl-6-[[2-[2-oxo-3-(3-oxo-4H-pyrazino[2,3-b][1,4]oxazin-6-yl)-1,3-oxazolidin-5-yl]ethylamino]methyl]-6,7-dihydro-5H-cyclopenta[c]pyridine-4-carbonitrile;2,2,2-trifluoroacetic acid], the IC50 is below 97.7 nM.

Consider `Cc1ncc(F)c2c1CC(CNCCc1nn(-c3cnc4c(n3)NC(=O)CO4)c(=O)o1)C2` (stereo not shown) [Example 335, 6-[5-[2-[(4-fluoro-1-methyl-6,7-dihydro-5H-cyclopenta[c]pyridin-6-yl)methylamino]ethyl]-2-oxo-1,3,4-oxadiazol-3-yl]-4H-pyrazino[2,3-b][1,4]oxazin-3-one], for which the IC50 came to 225 nM.

Take `O=C1COc2ncc(N3CC(CCNCC4Cc5cccc(Cl)c5C4)OC3=O)nc2N1` (stereo not shown) [Example 281, 6-[5-[2-[(4-Chloro-2,3-dihydro-1H-inden-2-yl)methylamino]ethyl]-2-oxo-1,3-oxazolidin-3-yl]-4H-pyrazino[2,3-b][1,4]oxazin-3-one]: the IC50 was below 97.7 nM.

As for `O=C1COc2ncc(N3CC4(CCN(CC5Cc6c(F)cc(OCc7cc[nH]n7)c(F)c6C5)CC4)OC3=O)nc2N1` (stereo not shown) [Example 396, 6-[8-[[4,7-difluoro-5-(1H-pyrazol-3-ylmethoxy)-2,3-dihydro-1H-inden-2-yl]methyl]-2-oxo-1-oxa-3,8-diazaspiro[4.5]decan-3-yl]-4H-pyrazino[2,3-b][1,4]oxazin-3-one], the IC50 came to 161 nM.

Turning to `O=C1COc2ncc(N3CC(CCNCC4Cc5ccnc(Cl)c5C4)OC3=O)nc2N1` (stereo not shown) [Example 38, 6-[5-[2-[(1-chloro-6,7-dihydro-5H-cyclopenta[c]pyridin-6-yl)methylamino]ethyl]-2-oxo-1,3-oxazolidin-3-yl]-4H-pyrazino[2,3-b][1,4]oxazin-3-one], the IC50 is below 97.7 nM.

On to `NC(=O)COc1cc(F)c2c(c1)CC(CNCCc1cn(-c3cnc4c(n3)NC(=O)CO4)c(=O)o1)C2` (stereo not shown) [Example 306, 2-[[7-fluoro-2-[[2-[2-oxo-3-(3-oxo-4H-pyrazino[2,3-b][1,4]oxazin-6-yl)-1,3-oxazol-5-yl]ethylamino]methyl]-2,3-dihydro-1H-inden-5-yl]oxy]acetamide; formic acid], for which the IC50 is below 97.7 nM.

With `CCn1cc(C(=O)O)c(=O)c2ccc3c(c21)CC(CNCCC1CN(c2ccc4c(n2)NC(=O)CO4)C(=O)O1)C3` (stereo not shown) [Example 275, 1-Ethyl-4-oxo-8-[[2-[2-oxo-3-(3-oxo-4H-pyrido[3,2-b][1,4]oxazin-6-yl)-1,3-oxazolidin-5-yl]ethylamino]methyl]-8,9-dihydro-7H-cyclopenta[h]quinoline-3-carboxylic acid], the IC50 was 592 nM.

Turning to `Cc1ncc(C#N)c2c1CC(CNCCC1CN(c3ccc4c(n3)NC(=O)CO4)C(=O)O1)C2` (stereo not shown) [Example 47, 1-methyl-6-[[2-[2-oxo-3-(3-oxo-4H-pyrido[3,2-b][1,4]oxazin-6-yl)-1,3-oxazolidin-5-yl]ethylamino]methyl]-6,7-dihydro-5H-cyclopenta[c]pyridine-4-carbonitrile; formic acid], the IC50 was below 97.7 nM.

For `NC1c2cccc(Cl)c2CC1NCCCC1CN(c2cnc3c(n2)NC(=O)CO3)C(=O)O1` (racemic) [Example 245, 6-[2-oxo-5-[3-[[rac-1,2-trans-1-amino-4-chloro-2,3-dihydro-1H-inden-2-yl]amino]propyl]-1,3-oxazolidin-3-yl]-4H-pyrazino[2,3-b][1,4]oxazin-3-one], the IC50 came to 119 nM.

Consider `N#Cc1cccc2c1CC(CNCCC1CN(c3ccc4c(n3)NC(=O)CO4)C(=O)O1)C2O` (racemic) [Example 139, rac-1,2-trans-1-hydroxy-2-[[2-[2-oxo-3-(3-oxo-4H-pyrido[3,2-b][1,4]oxazin-6-yl)-1,3-oxazolidin-5-yl]ethylamino]methyl]-2,3-dihydro-1H-indene-4-carbonitrile], for which the IC50 is 513 nM.

For `Cc1c(OCC2CCN2)ncc2c1CC(CNCCC1CN(c3ccc4c(n3)NC(=O)CO4)C(=O)O1)C2` (stereo in doubt) [Example 219, 6-[5-[2-[[4-methyl-3-[[(2R)-azetidin-2-yl]methoxy]-6,7-dihydro-5H-cyclopenta[c]pyridin-6-yl]methylamino]ethyl]-2-oxo-1,3-oxazolidin-3-yl]-4H-pyrido[3,2-b][1,4]oxazin-3-one], the IC50 was 378 nM.

Turning to `NC(=O)COc1ccc2c(c1F)CC(CNCCC1CN(c3cnc4c(n3)NC(=O)CO4)C(=O)O1)C2` (stereo not shown) [Example 413, 2-[[4-fluoro-2-[[2-[2-oxo-3-(3-oxo-4H-pyrazino[2,3-b][1,4]oxazin-6-yl)-1,3-oxazolidin-5-yl]ethylamino]methyl]-2,3-dihydro-1H-inden-5-yl]oxy]acetamide], the IC50 is below 97.7 nM.

Take `O=C1COc2ccc(N3CC(CCNCC4Cc5c(Cl)cccc5C4O)OC3=O)nc2N1` (racemic) [Example 230, 6-[2-Oxo-5-[2-[[rac-1,2-trans-4-chloro-1-hydroxy-2,3-dihydro-1H-inden-2-yl]methylamino]ethyl]-1,3-oxazolidin-3-yl]-4H-pyrido[3,2-b][1,4]oxazin-3-one]: the IC50 is below 97.7 nM.

In general, IC50 refers to the point on the concentration scale where inhibition reaches its midpoint.
